Values of other authors in PMC10017685 (Nature Communications, 2023).
Read-outs that look alike come from different tables or passages of the source.

Test system: human erythrocytes
Parameters: method as in DBAASP
Settings: cited from earlier work
[1] = toxicity class label 1 or 0, meaning of the labels not given, DBAASP HC50 data, human erythrocytes, ref DBAASP

Sequence | Class (dedicated toxicity dataset used for toxicity classifier evaluation) [1] | Class (dedicated toxicity dataset used for toxicity classifier evaluation)
IKNAKVCVYAVCVSHK [DBAASP_12238] | 0 | –
FWGFLGKLAMKAVPSLIGGNKK [DBAASP_8440] | 0 | –
GLLSRIKTLL [DBAASP_8598] | 0 | –
GLKALKKVFKGIHKAIKLINKHVK [DBAASP_6932] | 0 | –
VRRFPWWYPFLRR [DBAASP_14261] | 0 | –
GWKSVFRKAKKVGKTVGGLALDHYL [DBAASP_995] | 0 | –
KKLFKKILKYLA [DBAASP_13463] | 1 | –
WWWLRRRW [DBAASP_10634] | 0 | –
GLLGPLLKIAKKVGSNLL [DBAASP_4923] | 0 | –
GLLKKLLKKLLKKL [DBAASP_13973] | – | 1
ALWKTMLKKLGTMALHAGK [DBAASP_10088] | 0 | –
GLLDTLKGAAKNVVGSLASKVMEKL [DBAASP_4394] | 0 | –
VKRWKKWKRKWKKWV [DBAASP_16448] | 0 | –
IAKIAGKIAKIAGKIAKIAGKIAK [DBAASP_14999] | – | 1
WWWRRRIW [DBAASP_10633] | 0 | –
AKRHHGYKRKFH [DBAASP_732] | 0 | –
FLPAVLKVAAHILPTAICAISRRC [DBAASP_5694] | 0 | –
VKKFAWWWPFLKK [DBAASP_11304] | 0 | –
LPFFLLSLIPSAISAIKKI [DBAASP_8437] | 1 | –
VKRWKKWWRKLKKSV [DBAASP_8773] | 0 | –
FLWALFKVASK [DBAASP_646] | 0 | –
GKLSSLWKKLKKIIAK [DBAASP_8915] | 0 | –
GKLGPLLKIAAKVGSNLL [DBAASP_11237] | 0 | –

Sequence | Class (dedicated toxicity dataset used for toxicity classifier evaluation) [1] | Class (dedicated toxicity dataset used for toxicity classifier evaluation)
GIKKWVKGVAKGVAKDLAKKIL [DBAASP_11866] | 0 | –
FLKGIKGMLGKLF [DBAASP_9109] | 0 | –
GVWSTVLGGLKKFAKGGLEAIVNPK [DBAASP_3155] | 0 | –
WRRRYRRWRRRRRWRRRPRR [DBAASP_10396] | 0 | –
LLGPVLGLVSNVLGGLL [DBAASP_12136] | 0 | –
RPPQFTRAQWFAIQHISLN [DBAASP_6545] | 1 | –
FLPIVGKLLSGLF [DBAASP_1883] | 0 | –
VRRFPWAWPFLRR [DBAASP_14266] | 0 | –
FLPFVGNLLKGLL [DBAASP_1881] | 0 | –
WIRRIKKWIRRVHK [DBAASP_10626] | 0 | –
IAGKIAKIAGKIAKIAGKIAK [DBAASP_14998] | – | 0
GLLKKIKTLL [DBAASP_3141] | 0 | –
AVDLAKIANKVLSSLF [DBAASP_2207] | 0 | –
GLLKRIKVLL [DBAASP_3142] | 0 | –
FLPKILKVAAK [DBAASP_16465] | 0 | –
KLALKLALKALKAALKLA [DBAASP_1030] | 1 | –
VKRWKKWFRKWKKWV [DBAASP_16447] | 0 | –
CVKVSVKVGSGVKVSVKVC [DBAASP_348] | 0 | –
FLGAIAGVAAKFLPKVFCFITKKC [DBAASP_6167] | 1 | –
VRRFPYYWPFLRR [DBAASP_14262] | 0 | –
FFHHIFRGIVHVGKTIHRLVTG [DBAASP_4867] | 1 | –
FPVTWPTKWWEG [DBAASP_9720] | 0 | –
GLKEVAHSAKKFAKGFISGLTGS [DBAASP_5713] | 0 | –

Sequence | Class (dedicated toxicity dataset used for toxicity classifier evaluation) [1] | Class (dedicated toxicity dataset used for toxicity classifier evaluation)
KLLKVIKKLL [DBAASP_3153] | 0 | –
VQLRIRVAVIRA [DBAASP_7109] | 0 | –
ILGKLLSTAAKLLSKL [DBAASP_4366] | 1 | –
GIKDLLKGAAKALVKTVLK [DBAASP_11236] | 0 | –
KIAGKIAKIAGKIA [DBAASP_10129] | – | 0
FLGLLFHGVHHVGKWIHGLIHGHH [DBAASP_1001] | 1 | –
FLSKIWDGVKSLL [DBAASP_18168] | 0 | –
GKWKKILGKLIR [DBAASP_3277] | – | 0
FLPIIAGMAAKVICAITKKC [DBAASP_4210] | 1 | –
GWASSIGSILGKFAKGGAQAFLQPK [DBAASP_5714] | 0 | –
VKKFPWWWAFLKK [DBAASP_11305] | 0 | –
SKVLRHLRRFLHRAHRKL [DBAASP_7665] | 0 | –
SAVWRWRRFWLRKRK [DBAASP_9989] | 0 | –
FIHHIIGGLFSVGKHIHSLIHGH [DBAASP_12673] | 1 | –
GIIKKIIKKIIKKI [DBAASP_4594] | 0 | –
ITKQITKQLNRQTKIQSK [DBAASP_13427] | 0 | –
KLFKKLFK [DBAASP_17848] | 0 | –
GLFDIWAWWRWRR [DBAASP_10051] | 0 | –
GVVDILKGAAKDIAGHLASKVMNKL [DBAASP_4358] | 0 | –
RWCVYAYVRVRGVLVRYRRCW [DBAASP_13517] | 0 | –
GMATKAGTALGKVAKAVIGAAL [DBAASP_2285] | 0 | –
GMLKRIKTLM [DBAASP_8626] | 0 | –
FFLLSLIPSAISAIKKI [DBAASP_8438] | 0 | –

Sequence | Class (dedicated toxicity dataset used for toxicity classifier evaluation) [1] | Class (dedicated toxicity dataset used for toxicity classifier evaluation)
IKKIIKKI [DBAASP_10843] | 0 | –
GLNALKKVFQGIHEAIKLINKHVQ [DBAASP_6926] | 0 | –
GLLKKLLKIAAKVGKKLL [DBAASP_4928] | 1 | –
KWCFRVCYRGICYRRCR [DBAASP_2229] | – | 0
GLFGKILGVGKKVLCGLSGMC [DBAASP_2198] | 0 | –
GIMSSLMKKLAAIIAK [DBAASP_8899] | 0 | –
KGIVGMLGKLF [DBAASP_5480] | 0 | –
FLSLIPKIAGGIAALAKHL [DBAASP_10835] | 1 | –
WWWLRRIW [DBAASP_10629] | 0 | –
HWRRFWHR [DBAASP_12822] | 0 | –
IKKWWSKIKKLLK [DBAASP_7156] | 0 | –
FLSLALAALPKFLCLVFKKC [DBAASP_1468] | 1 | –
IIKKIIKKIIKKI [DBAASP_13881] | 0 | –
FIGAIARLLSKIF [DBAASP_1465] | 1 | –
GIMSSLMKKLAKIIKK [DBAASP_8903] | – | 0
GLLKKIKKLL [DBAASP_7429] | 0 | –
FLPLKKLRFGLL [DBAASP_5722] | 0 | –
GLLDLLKLLLKAAG [DBAASP_12756] | 0 | –
GLKKIFKAGLGSLVKGIAAHVAS [DBAASP_4408] | 0 | –
CFKFKFKFGSGFKFKFKFC [DBAASP_352] | 0 | –
RWWLRRIW [DBAASP_10630] | 0 | –
